Assay results: patent publication US7666582B2, “IdeS, an IgG-degrading enzyme of Streptococcus pyogenes” (Hansa Medical Research AB, priority 2001, dated 2010)
“Also recorded” adds a separate entry of the source. Read-outs that look alike come from different tables or passages of the source. * marks the point of attachment. code Z = not defined here; CHN2 = [N-]=[N+]=C*

Assays:
S. pyogenes [1] = conditions: in vivo; cited from earlier work
IdeS [2] = test: Proteinase inhibition assay (IgG cleavage by IdeS, SDS-PAGE); assay type: biochemical, S. pyogenes; conditions: 30 min preincubation, IdeS 0.3 μg/ml
Protocol: Partially purified IdeS (0.3 μg/ml) was incubated with either 20 nM iodoacetic acid, Z-LVG-CHN2 (Björck et al., 1989) at 0.4 mg/ml in 1% DMSO, or E64 (40 μM). The tubes were kept in the dark and incubated for 30 min at room temperature. As controls, IdeS was also kept in phosphate buffered saline (PBS) or in 1% DMSO, the solvent for Z-LVG-CHN2. After 30 min, 5 μl of 10 mg/ml IgG (Sigma) were added, and the volume was adjusted to 100 μl with PBS. Incubation was continued for 60 min at 37° C. The reaction was stopped by the addition of SDS-PAGE sample buffer and samples were analyzed by 12% SDS-PAGE.

[3] = tested on: IgG-cleaving activity of S. pyogenes strain AP1 growth medium; test: Cleavage of IgG in AP1 growth medium with E64 added; assay type: biochemical; conditions: E64 added to the AP1 growth medium, TH medium with 10% human plasma
SpeB = SpeB (Streptococcus pyogenes, UniProt P0C0J0); conditions: cited from earlier work
S. pyogenes [4] = conditions: in vitro; cited from earlier work
papain = target: T1, papain (Carica papaya, UniProt P00784); conditions: cited from earlier work
T1 sequence (P00784 134-345): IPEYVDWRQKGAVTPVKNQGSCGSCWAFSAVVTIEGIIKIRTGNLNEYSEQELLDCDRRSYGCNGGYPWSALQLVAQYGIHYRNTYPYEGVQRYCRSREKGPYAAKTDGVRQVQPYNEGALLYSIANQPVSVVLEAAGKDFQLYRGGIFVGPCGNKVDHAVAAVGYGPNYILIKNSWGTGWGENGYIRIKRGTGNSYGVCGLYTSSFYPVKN

IdeS [5] = test: Inhibition of IdeS activity by IgG-binding streptococcal proteins; assay type: biochemical, S. pyogenes

For `CC(C)C[C@H](NC(=O)[C@H]1O[C@@H]1C(=O)O)C(=O)NCCCCN=C(N)N` (relative stereo) [E64, trans-epoxysuccinyl-L-leucylamido-(4-Guanidino) butane], the “inhibition of streptococcal growth” value (S. pyogenes [1]) is given as “only Z-LVG-CHN2 inhibited streptococcal growth”, the “inhibition of the activity of IdeS (IgG cleavage)” value (from here on “inhibition of the activity of IdeS”) (IdeS [2]; E64 (40 μM)) is given as “had no effect on the enzyme; also recorded: not affected” and the “inhibition of the cleavage of IgG (31 kDa product)” value [3] is given as “did not inhibit the cleavage of IgG”. For the same compound, the “inhibition of the proteolytic activity of SpeB” value (SpeB) was “efficiently blocked; also recorded: irreversibly block the proteolytic activity of SpeB” and the “inhibition of streptococcal growth” value (S. pyogenes [4]) was “only Z-LVG-CHN2 inhibited streptococcal growth”.
In the case of `O=C(O)CI` [iodoacetic acid], the “inhibition of the activity of IdeS” value (IdeS [2]; 20 nM iodoacetic acid) is reported as “efficiently inhibited the activity of IdeS”.
For “Z-LVG-CHN2: peptide derivate based on the inhibitory reactive site of cystatin C, carrying a diazomethyl ketone group ({code Z}-Leu-Val-Gly-CHN2; reading uncertain)”, the “inhibition of streptococcal growth” value (S. pyogenes [1]) is given as “inhibited streptococcal growth”, the “inhibition of the activity of IdeS” value (IdeS [2]; Z-LVG-CHN2 at 0.4 mg/ml in 1% DMSO) is given as “efficiently inhibited the activity of IdeS; also recorded: is inhibited” and the “inhibition of the proteolytic activity of SpeB” value (SpeB) is given as “irreversibly inhibit; also recorded: irreversibly block the proteolytic activity of SpeB”. For the same compound, the “inhibition of streptococcal growth” value (S. pyogenes [4]) was “inhibited streptococcal growth” and the inhibition of papain (papain) was “irreversibly inhibit”.
With “protein G: streptococcal protein that binds the Cγ2-Cγ3 interphase region of IgG” the “inhibition of IdeS activity” value (IdeS [5]) was “cannot inhibit IdeS activity”.
